± gives the expanded uncertainty stated by the source.
Conditions: 298.15 K, 101.33 kPa, Liquid; for viscosity: Capillary tube (Ostwald / Ubbelohde) method; for speed of sound: Sing-around technique in a fixed-path interferometer

| Compound | mass density [kg/m3] | viscosity [mPa·s] | speed of sound [m/s] |
| --- | --- | --- | --- |
| CC(C)CO [2-methyl-1-propanol] | 798.104 ± 1 | 3.307 ± 0.025 | 1188.8 ± 1.3 |
| CCCCO [butan-1-ol] | 805.953 ± 0.47 | 2.565 ± 0.016 | 1241.1 ± 1 |
| NCCN [ethane-1,2-diamine] | 892.389 ± 0.75 | 1.405 ± 0.012 | 1671.6 ± 1.4 |
| CC(C)O [propan-2-ol] | 781.051 ± 0.51 | 2.063 ± 0.013 | 1140.4 ± 0.9 |
